According to patent US20250163119A1, “COMPOUNDS FOR THE TREATMENT OF DIABETES OR OBESITY” (Eli Lilly and Company, priority 2023, published 2025):
*1 amine or outer side, *2 acyl side, *3 side chain or, on linkers, in order; H or OH if unused. Where a SMILES comes first, the peptide text is derived from it. Side-chain parts run from the residue outwards. [ ]: non-standard residue; d: D form. The star is where a group is joined. C20 diacid = O=C(O)CCCCCCCCCCCCCCCCCCC(=O)*; C18 diacid = O=C(O)CCCCCCCCCCCCCCCCC(=O)*; γGlu = O=C(O)[C@H](CCC(=O)[*:2])N[*:1]; εLys = N[C@@H](CCCCN[*:1])C(=O)[*:2]; αMeL = CC(C)C[C@](C)(N)C(=O)O; AEEA = NCCOCCOCC(=O)O; Aib = CC(C)(N)C(=O)O; Ahx = NCCCCCC(=O)O; βAla = NCCC(=O)O

How the values were obtained:
human CRHR1 = target: T1, human CRHR1 (Homo sapiens, UniProt P34998); assay: Human CRHR1 cAMP assay (HTRF) in HEK293 cells stably expressing human CRHR1; type: cell-based; settings: HEK293 cells overexpressing human CRHR1; relative EC50, maximum 66 nM human UCN1; mean ± SE; read-out: hCRHR1 cAMP EC50 (pM, ± SE)
T1 construct: expressed in transfected cells
T1 sequence (P34998 24-415): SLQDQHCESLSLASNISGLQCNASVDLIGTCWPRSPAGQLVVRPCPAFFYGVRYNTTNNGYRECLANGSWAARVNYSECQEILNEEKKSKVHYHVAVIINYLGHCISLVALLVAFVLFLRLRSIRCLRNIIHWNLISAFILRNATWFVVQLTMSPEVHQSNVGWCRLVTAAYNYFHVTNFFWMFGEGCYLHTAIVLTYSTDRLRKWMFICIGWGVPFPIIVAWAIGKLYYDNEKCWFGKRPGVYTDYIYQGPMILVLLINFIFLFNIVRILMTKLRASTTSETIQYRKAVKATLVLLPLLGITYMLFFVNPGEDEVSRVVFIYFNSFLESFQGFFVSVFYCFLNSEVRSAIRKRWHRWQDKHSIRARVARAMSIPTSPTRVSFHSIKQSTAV
In short: (§1)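 HEK293 cells stably expressing human CRHR1 (25,000/well) or CRHR2b (5,000/well) were treated with peptides in MEM with 0.1% casein, 5 mM HEPES pH 7.4 and 0.25 mM IBMX. Incubation was 1 h at 37 °C for CRHR1 and 30 min at room temperature for CRHR2. cAMP was measured by HTRF (665/620 nm) against a per-experiment cAMP standard curve.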

human CRHR2 = target: T2, human CRHR2 (Homo sapiens, UniProt Q13324); assay: Human CRHR2 cAMP assay (HTRF) in HEK293 cells stably expressing human CRHR2; type: cell-based; settings: HEK293 cells overexpressing human CRHR2; relative EC50, maximum 10 nM human UCN2; mean ± SE; read-out: hCRHR2 cAMP EC50 (pM, ± SE)
T2 construct: expressed in transfected cells
T2 sequence (Q13324 1-438 isoform Q13324-2): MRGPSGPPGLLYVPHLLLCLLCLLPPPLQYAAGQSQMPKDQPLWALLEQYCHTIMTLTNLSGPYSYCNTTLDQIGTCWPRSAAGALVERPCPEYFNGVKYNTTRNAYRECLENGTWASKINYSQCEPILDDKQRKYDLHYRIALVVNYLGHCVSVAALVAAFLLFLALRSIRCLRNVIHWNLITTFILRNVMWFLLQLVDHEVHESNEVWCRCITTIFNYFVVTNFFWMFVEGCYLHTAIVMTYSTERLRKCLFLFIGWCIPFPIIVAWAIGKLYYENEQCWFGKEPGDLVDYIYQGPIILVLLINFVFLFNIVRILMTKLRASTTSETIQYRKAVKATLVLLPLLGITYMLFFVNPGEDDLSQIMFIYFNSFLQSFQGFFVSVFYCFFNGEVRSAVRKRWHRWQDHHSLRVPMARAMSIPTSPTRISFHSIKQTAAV
In short: as §1

| EC50 (human CRHR1) [pM] | EC50 (human CRHR2) [pM] | Molecule |
| --- | --- | --- |
| > 1e+07 | 7.9 ± 0.3 | Ac-GSPSIVTS[αMeL]DVPT[Aib][αMeL]LQKILEQERAEKARQQAK([γGlu-Pro-Lys-Glu-εLys-C20 diacid])EAAEILAQV-NH2 [SEQ ID NO: 13, Ac-GSPSIVTS αMeL DVPT Aib αMeL LQKILEQERAEKARQQAK(γE-PKE-ϵK-CO-(CH2)18-CO2H)EAAEILAQV-NH2] |
| > 1e+07 | 10.1 ± 1.1 | Ac-GSPSIVTS[αMeL]DVPT[Aib][αMeL]LQKILEQERAEKARQQAK([βAla-Ser-βAla-Ser-γGlu-C20 diacid])EAAEILAQV-NH2 [SEQ ID NO: 10, Ac-GSPSIVTS αMeL DVPT Aib αMeL LQKILEQERAEKARQQAK((βA)-S-(βA)-S-γE-CO-(CH2)18-CO2H)EAAEILAQV-NH2] |
| > 1e+07 | 9.5 ± 0.9 | Ac-GSPSIVTS[αMeL]DVPT[Aib][αMeL]LQKILEQERAEKARQQAK([γGlu-AEEA-AEEA-εLys-C20 diacid])EAAEILAQV-NH2 [SEQ ID NO: 17, Ac-GSPSIVTS αMeL DVPT Aib αMeL LQKILEQERAEKARQQAK(γE-(2-[2-(2-Amino-ethoxy)-ethoxy]-acetyl)2-ϵK-CO-(CH2)18-CO2H)EAAEILAQV-NH2] |
| 1.1e+06 | 6.3 ± 2.1 | CC[C@H](C)[C@H](NC(C)=O)C(=O)N[C@H](C(=O)N[C@H](C(=O)N[C@@H](CO)C(=O)N[C@@](C)(CC(C)C)C(=O)N[C@@H](CC(=O)O)C(=O)N[C@@H](C(=O)N1CCC[C@H]1C(=O)N[C@H](C(=O)NCC(=O)N[C@@](C)(CC(C)C)C(=O)N[C@@H](CC(C)C)C(=O)N[C@@H](CCC(N)=O)C(=O)N[C@H](C(=O)N[C@@H](CCCCN)C(=O)N[C@@H](CC(C)C)C(=O)N[C@@H](CCC(=O)O)C(=O)N[C@@H](CCC(N)=O)C(=O)N[C@@H](CCC(=O)O)C(=O)N[C@@H](CCCNC(=N)N)C(=O)N[C@@H](C)C(=O)N[C@@H](CCC(=O)O)C(=O)N[C@@H](CCCCN)C(=O)N[C@@H](C)C(=O)N[C@@H](CCCNC(=N)N)C(=O)N[C@@H](CCC(N)=O)C(=O)N[C@@H](CCC(N)=O)C(=O)N[C@@H](C)C(=O)N[C@@H](CCCCNC(=O)CC[C@H](NC(=O)CC[C@H](NC(=O)[C@@H](N)CCCCNC(=O)CCCCCCCCCCCCCCCCCCC(=O)O)C(=O)O)C(=O)O)C(=O)N[C@@H](CCC(=O)O)C(=O)N[C@@H](CC(N)=O)C(=O)N[C@H](C(=O)N[C@@H](CCC(=O)O)C(=O)N[C@H](C(=O)N[C@@H](CC(C)C)C(=O)N[C@@H](C)C(=O)N[C@@H](CCC(N)=O)C(=O)N[C@H](C(N)=O)C(C)C)[C@@H](C)CC)[C@@H](C)O)[C@@H](C)CC)[C@@H](C)O)C(C)C)[C@@H](C)O)C(C)C [SEQ ID NO: 38, Ac-IVTS αMeL D (D-Val) PTG αMeL LQIKLEQERAEKARQQAK(γE-γE-ϵK-CO-(CH2)18-CO2H)ENTEILAQV-NH2] (Ac-IVTS[αMeL]D[dV]PTG[αMeL]LQIKLEQERAEKARQQAK([γGlu-γGlu-εLys-C20 diacid])ENTEILAQV-NH2) |
| > 1e+07 | 13 ± 1.1 | Ac-PPPIVTS[αMeL]D[dV]PT[Aib][αMeL]LQK[Aib]LEQERAEKARQQAK([γGlu-AEEA-εLys-C20 diacid])ENTEILAQV-NH2 [SEQ ID NO: 46, Ac-PPPIVTS αMeL D (D-Val) PT Aib αMeL LQK Aib LEQERAEKARQQAK(γE-(2-[2-(2-Amino-ethoxy)-ethoxy]-acetyl)-ϵK-CO-(CH2)18-CO2H)ENTEILAQV-NH2] |

The next lines start with the molecule.

| Molecule | EC50 (human CRHR1) [pM] | EC50 (human CRHR2) [pM] |
| --- | --- | --- |
| CC[C@H](C)[C@H](NC(C)=O)C(=O)N[C@H](C(=O)N[C@H](C(=O)N[C@@H](CO)C(=O)N[C@@](C)(CC(C)C)C(=O)N[C@@H](CC(=O)O)C(=O)N[C@@H](C(=O)N1CCC[C@H]1C(=O)N[C@H](C(=O)NCC(=O)N[C@@](C)(CC(C)C)C(=O)N[C@@H](CC(C)C)C(=O)N[C@@H](CCC(N)=O)C(=O)N[C@H](C(=O)N[C@@H](CCCCN)C(=O)N[C@@H](CC(C)C)C(=O)N[C@@H](CCC(=O)O)C(=O)N[C@@H](CCC(N)=O)C(=O)N[C@@H](CCC(=O)O)C(=O)N[C@@H](CCCNC(=N)N)C(=O)N[C@@H](C)C(=O)N[C@@H](CCC(=O)O)C(=O)N[C@@H](CCCCN)C(=O)N[C@@H](C)C(=O)N[C@@H](CCCNC(=N)N)C(=O)N[C@@H](CCC(N)=O)C(=O)N[C@@H](CCC(N)=O)C(=O)N[C@@H](C)C(=O)N[C@@H](CCCCNC(=O)COCCOCCNC(=O)CC[C@H](NC(=O)[C@@H](N)CCCCNC(=O)CCCCCCCCCCCCCCCCCCC(=O)O)C(=O)O)C(=O)N[C@@H](CCC(=O)O)C(=O)N[C@@H](CC(N)=O)C(=O)N[C@H](C(=O)N[C@@H](CCC(=O)O)C(=O)N[C@H](C(=O)N[C@@H](CC(C)C)C(=O)N[C@@H](C)C(=O)N[C@@H](CCC(N)=O)C(=O)N[C@H](C(N)=O)C(C)C)[C@@H](C)CC)[C@@H](C)O)[C@@H](C)CC)[C@@H](C)O)C(C)C)[C@@H](C)O)C(C)C [SEQ ID NO: 33, Ac-IVTS αMeL D (D-Val) PTG αMeL LQIKLEQERAEKARQQAK((2-[2-(2-Amino-ethoxy)-ethoxy]-acetyl)-γE-ϵK-CO-(CH2)18-CO2H)ENTEILAQV-NH2] (Ac-IVTS[αMeL]D[dV]PTG[αMeL]LQIKLEQERAEKARQQAK([AEEA-γGlu-εLys-C20 diacid])ENTEILAQV-NH2) | 1.1e+06 | 4.6 ± 0.6 |
| {C20 diacid}-K[AEEA][γGlu]GSPSIVTS[αMeL]DVPT[Aib][αMeL]LQKILEQERAEKARQQATEAAEILAQV-NH2 [SEQ ID NO: 26] | > 1e+07 | 6.9 ± 0.7 |
| Ac-GSPSIVTS[αMeL]DVPT[Aib][αMeL]LQKILEQERAEKARQQAK([γGlu-AEEA-εLys-C18 diacid])EAAEILAQV-NH2 [SEQ ID NO: 21, Ac-GSPSIVTS αMeL DVPT Aib αMeL LQKILEQERAEKARQQAK(γE-(2-[2-(2-Amino-ethoxy)-ethoxy]-acetyl)-ϵK-CO-(CH2)16-CO2H)EAAEILAQV-NH2] | > 1e+07 | 16.3 ± 1.3 |
| Ac-GSPSIVTS[αMeL]DVPT[Aib][αMeL]LQKILEQERAEKARQQAK([γGlu-AEEA-Ahx-C20 diacid])EAAEILAQV-NH2 [SEQ ID NO: 5, Ac-GSPSIVTS αMeL DVPT Aib αMeL LQKILEQERAEKARQQAK(γE-(2-[2-(2-Amino-ethoxy)-ethoxy]-acetyl)-Ahx-CO-(CH2)18-CO2H)EAAEILAQV-NH2] | > 1e+07 | 10.7 ± 0.8 |
